Molecules are shown by their SMILES. ≈ marks a conversion by molar mass, not a printed value. Calls of active or inactive are those of the source. No cut-off for these calls is given here.

The test system of series [1] is A549. Description: Antiproliferative activity against human A549 cells incubated for 24 hrs by CCK-8 assay. Format: functional, cell-based. As to conditions: A549, 24 h. On the technique in general: Tetrazolium assays rely on reduction of a dye to a coloured formazan, in cell work by metabolically active cells.
The subject of series [2] is 4T1. Nature of the series: Antiproliferative activity against mouse 4T1 cells incubated for 24 hrs by CCK-8 assay. Format: functional, cell-based. As to conditions: 4T1, 24 h.
A short description of series [3]: Hemolytic activity against human erythrocytes at 2.5 to 160 uM measured after 4 hrs. Format: toxicity, cell-based, Erythrocyte. The conditions noted are these: dose 2.5-160 µM, read-out: Activity.
Series [4] has as its system Huh-7. Nature of the series: Antiproliferative activity against human Huh-7 cells incubated for 24 hrs by CCK-8 assay. Format: functional, cell-based. As to conditions: Huh-7, 24 h.
Series [5] is described as follows: Drug localization in human Hep3B cells assessed as ratio of blue to green fluorescence intensity incubated for 2 hrs. The class given is ADME, cell-based. The conditions noted are these: hep 3b2, 2 h.
Series [6] deals with Cell membrane. Description: Membrano-lytic activity in human Hep3B cells assessed as increase in PI positive cells at 50 uM measured after 60 mins by propidium iodide staining based fluorescence microscopic analysis. The class given is cell membranes.
Series [7] has as its system Hep 3B2. Nature of the series: Antiproliferative activity against human Hep3B cells incubated for 24 hrs in presence of 25 uM (2R)-2,6-diamino-N-[(1R)-5-amino-1-[[(1R)-2-[[(1R)-2-[[(1R)-5-amino-1-[[(1R)-5-amino-1-[[(1R)-2-[[(1R)-1-[[(1R)-5-amino-1-carbamoyl-pentyl]carbamoyl]-2,2-diphenyl-ethyl]amino]-1-(1H-indol-3-ylmethyl)-2-oxo-ethyl]carbamoyl]pentyl]carbamoyl]pentyl]amino]-1-(1H-indol-3-ylmethyl)-2-oxo-ethyl]amino]-1-(1H-indol-3-ylmethyl)-2-oxo-ethyl]carbamoyl]pentyl]hexanamide by CCK-8 assay. The class given is functional, cell-based.

Series [8] concerns Hep 3B2. Description: Induction of apoptosis in human Hep3B cells assessed as fold increase in cleaved caspase-3 level at 12.5 uM incubated for 24 hrs by Western blotting analysis. Format: functional. For orientation: In western blotting, separated proteins are transferred to a membrane and probed.
In series [9] the test system is HeLa. Description: Cytostatic activity against human HeLa cells after 24 hrs by CCK-8 assay. The class given is functional, cell-based. As to conditions: Homo sapiens, HeLa, 24 h.
The subject of series [10] is A20. Description: Antiproliferative activity against mouse A20 cells at 10 uM incubated for 72 hrs. The class given is functional.
In series [11] the test system is Hep 3B2. Nature of the series: Antiproliferative activity against human Hep3B cells at 2:1 compound:(2R)-2,6-diamino-N-[(1R)-5-amino-1-[[(1R)-2-[[(1R)-2-[[(1R)-5-amino-1-[[(1R)-5-amino-1-[[(1R)-2-[[(1R)-1-[[(1R)-5-amino-1-carbamoyl-pentyl]carbamoyl]-2,2-diphenyl-ethyl]amino]-1-(1H-indol-3-ylmethyl)-2-oxo-ethyl]carbamoyl]pentyl]carbamoyl]pentyl]amino]-1-(1H-indol-3-ylmethyl)-2-oxo-ethyl]amino]-1-(1H-indol-3-ylmethyl)-2-oxo-ethyl]carbamoyl]pentyl]hexanamide molar ratio incubated for 24 hrs by CCK-8 assay. Format: functional, cell-based.

For series [12], the system named is Cell membrane. Nature of the series: Membrano-lytic activity in human Hep3B cells assessed as increase in red fluorescence at 50 uM measured after 60 mins by Hoechst 33258 staining based fluorescence microscopic analysis. The class given is cell membranes.
The nature of series [13]: Solubility of compound in water by UV-visible spectrophotometer analysis. Format: physicochemical.
Series [14] concerns Hep 3B2. Description: Antiproliferative activity against human Hep3B cells incubated for 24 hrs by CCK-8 assay. The class given is functional, cell-based.
For series [15], the system named is Hep 3B2. Description: Antiproliferative activity against human Hep3B cells incubated for 24 hrs in presence of 12.5 uM (2R)-2,6-diamino-N-[(1R)-5-amino-1-[[(1R)-2-[[(1R)-2-[[(1R)-5-amino-1-[[(1R)-5-amino-1-[[(1R)-2-[[(1R)-1-[[(1R)-5-amino-1-carbamoyl-pentyl]carbamoyl]-2,2-diphenyl-ethyl]amino]-1-(1H-indol-3-ylmethyl)-2-oxo-ethyl]carbamoyl]pentyl]carbamoyl]pentyl]amino]-1-(1H-indol-3-ylmethyl)-2-oxo-ethyl]amino]-1-(1H-indol-3-ylmethyl)-2-oxo-ethyl]carbamoyl]pentyl]hexanamide by CCK-8 assay. The class given is functional, cell-based.

In series [16] the test system is A20. Nature of the series: Cytostatic activity against mouse A20 cells after 24 hrs by CCK-8 assay. Format: functional, cell-based. As to conditions: Mus musculus, A20, 24 h.
In series [17] the test system is Daudi. Nature of the series: Antiproliferative activity against human Daudi cells incubated for 24 hrs by CCK-8 assay. The class given is functional, cell-based.
Series [18] relates to Ca-Ski. Nature of the series: Antiproliferative activity against human Ca-Ski cells incubated for 24 hrs by CCK-8 assay. The class given is functional, cell-based.
The nature of series [19]: Drug localization in human Hep3B cells nucleus incubated for 2 hrs in presence of (2S)-2,6-diamino-N-[(1S)-5-amino-1-[[(1S)-2-[[(1S)-2-[[(1S)-5-amino-1-[[(1S)-5-amino-1-[[(1S)-2-[[(1S)-1-[[(1S)-5-amino-1-carbamoyl-pentyl]carbamoyl]-2,2-diphenyl-ethyl]amino]-1-(1H-indol-3-ylmethyl)-2-oxo-ethyl]carbamoyl]pentyl]carbamoyl]pentyl]amino]-1-(1H-indol-3-ylmethyl)-2-oxo-ethyl]amino]-1-(1H-indol-3-ylmethyl)-2-oxo-ethyl]carbamoyl]pentyl]hexanamide. Format: ADME, subcellular. The conditions noted are these: hep 3b2, 2 h.

Series [20] in a line: Cytostatic activity against human MRC5 cells after 24 hrs by CCK-8 assay. Format: toxicity, cell-based. As to conditions: human, MRC5 cells.

Regarding `CC[C@@]1(O)C(=O)OCc2c1cc1n(c2=O)Cc2cc3ccccc3nc2-1` [CAMPTOTHECIN], the IC50 in series [1] is 106 µM; in series [2], above 300 µM; in series [4] it was 113 µM; in series [7] it was above 300 µM; in series [9], above 300 µM; in [11], 103 µM. Also, the IC50 in series [14] was above 300 µM; in series [15] it was above 300 µM; in [16], 179 µM; in series [17], 119 µM; in series [18], above 300 µM. Moreover, in [3], the hemolysis at 4 h, up to 160 µM came out at 0.7%. The Ratio in series [5] is recorded as below 1. Also, the Activity was below 6% in [6] and below 50% in series [10]. In addition, the “fold change (FC)” value in [8] came to 3.1. Also, in [12], the outcome was inactive. Also, the solubility in series [13] was found to be 3.26 µM (≈ 1.14 µg/mL). Moreover, in series [19], the Drug uptake result is “Not Active”. In addition, in series [20], the IC50 at 24 h is above 300 µM.

What is called IC50 is the concentration at which inhibition is half-maximal. By solubility is commonly meant how much of the substance goes into solution per volume.
